Test results as given in patent US20040209312A1, “Identifying and reducing the allergenicity of food proteins” (priority 2001, published 2004).

Test system: naïve human CD4+ T-cells and dendritic cells
Type: cell-based
Conditions: for T-cell epitope designation: Ber e 1 dataset, background 4.27%

Row | Substance | percentage of the donor pool that responded with a baseline-normalized response of 2.95 or better (percent responders) (Ber e 1 15-mer peptide set, 5 μM peptide, human donors) | T-cell epitope designation (5 μM peptide) | positive control response (T-cell proliferation) (positive control antigen in all tests reported)
1 | RQQMLSHCRMYMRQQ [peptide #4] | 18.48% | reached the three-fold cut-off | 
2 | LRMMMMRMQQEEMQP [Peptide # 16] |  | does not reach any epitope designation | 
3 | MQPRGEQMRRMMRLA [peptide #20] |  | minor epitopes | 
4 | LEGMDESCRCEGLRM [peptide #12] |  | minor epitopes | 
5 | tetanus toxoid: positive control antigen in the T-cell proliferation assay [reference compound] |  |  | robust positive control responses
